Assay results as given in patent US20240199613A1 (TAKEDA PHARMACEUTICAL COMPANY LIMITED, priority 2021, published 2024).

Experiments:
plasma kallikrein = molecular target: T1, plasma kallikrein (Homo sapiens, UniProt P03952); test: Neat human plasma assay: contact pathway-activated (FXIIa) plasma, PFR-AMC substrate; format: biochemical; settings: citrated human plasma (78% final), 10 nM human FXIIa, 100 μM PFR-AMC, room temperature
T1 construct: from tissue; host or cells: sodium citrate collected human plasma (78% final)
Method: To analyze inhibition of plasma kallikrein in an ex vivo setting, the potency of compounds was measure in contact pathway-activated plasma assays. In a fluorogenic peptide substrate assay, test compounds dissolved in DMSO were added to sodium citrate collected human or rat plasma in a 96-well microplate. Alternatively, citrated plasma was collected from rats administered the compounds orally or by IV. 10 nM of human FXIIa (Enzyme Research Laboratories) diluted in pKal buffer (20 mM Tris-HCl, pH 7.5, 150 mM NaCl, 1 mM EDTA, 0.1% PEG-8000, and 0.1% Triton X-100) was added to the plasma, followed by the 100 μM of the profluorescent, synthetic plasma kallikrein substrate PFR-AMC (also diluted in pKal buffer). Final plasma concentration in the reaction was 78%. Fluorescence was immediately monitored by excitation/emission wavelengths of 360 nm/480 nm respectively over a period of 5 minutes in a microplate reader. The resulting linear increase in fluorescence emission (reflecting pKal proteolysis of PFR-AMC substrate) was fit to extract a proteolytic rate (fluorescent units over time), and this rate was subsequently plotted against compound inhibitor concentration. Resulting plots were fit to a standard 4-parameter IC50/IC90 equation to determine min/max values, IC50/90, and slope. All experimental steps were performed at room temperature.

[1] = molecular target: human activated kallikrein enzyme (Homo sapiens, UniProt P03952); test: Inhibition of activated plasma kallikrein, fluorogenic peptide substrate (PFR-AMC) assay, 500 pM enzyme format; format: biochemical; settings: 500 pM activated kallikrein, 300 uM PFR-AMC, 30 min preincubation, 10 min reaction, room temperature; read-out: Primary Dose Response Assay: Average EC50
Method: Compounds were evaluated for inhibition of the human activated kallikrein enzyme in two formats of an assay employing a fluorogenic peptide substrate. In one assay format, the concentrations of reagents were as follows: 20 mM Tris pH 7.5, 1 mM EDTA, 150 mM sodium chloride, 0.1% PEG-400, 0.1% Triton X-100, 500 pM activated kallikrein enzyme, 300 uM Pro-Phe-Arg-7-amido-4-methylcoumarin (PFR-AMC) substrate. Prior to reaction initiation with substrate, enzyme and inhibitors were preincubated for 30 min at room temperature. After initiation with substrate, reactions were incubated for 10 min at room temperature and fluorescence emission at 460 nm from 380 nm excitation measured with a microplate reader. In another assay format, the concentrations of reagents were as follows: 20 mM Tris pH 7.5, 1 mM EDTA, 150 mM sodium chloride, 0.1% PEG-400, 0.1% Triton X-100, 5 pM activated kallikrein enzyme, 300 uM PFR-AMC substrate. Prior to reaction initiation with substrate, enzyme and inhibitors were preincubated for 30 min at room temperature. After initiation with substrate, reactions were incubated for 18 hr at room temperature and fluorescence emission at 460 nm from 380 nm excitation measured with a microplate reader.
Table 6 provides the results of the assay in the format with 500 pM activated kallikrein assay.

T1 sequence (P03952 391-638 limits assumed): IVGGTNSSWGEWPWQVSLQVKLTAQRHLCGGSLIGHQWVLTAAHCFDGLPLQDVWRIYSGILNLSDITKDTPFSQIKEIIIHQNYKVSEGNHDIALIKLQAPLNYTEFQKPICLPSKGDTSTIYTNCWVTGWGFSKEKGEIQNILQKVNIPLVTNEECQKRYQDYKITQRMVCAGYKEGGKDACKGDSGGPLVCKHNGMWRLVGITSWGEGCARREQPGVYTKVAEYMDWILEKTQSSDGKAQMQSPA
T1 sequence (P03952 20-390 partner limits assumed): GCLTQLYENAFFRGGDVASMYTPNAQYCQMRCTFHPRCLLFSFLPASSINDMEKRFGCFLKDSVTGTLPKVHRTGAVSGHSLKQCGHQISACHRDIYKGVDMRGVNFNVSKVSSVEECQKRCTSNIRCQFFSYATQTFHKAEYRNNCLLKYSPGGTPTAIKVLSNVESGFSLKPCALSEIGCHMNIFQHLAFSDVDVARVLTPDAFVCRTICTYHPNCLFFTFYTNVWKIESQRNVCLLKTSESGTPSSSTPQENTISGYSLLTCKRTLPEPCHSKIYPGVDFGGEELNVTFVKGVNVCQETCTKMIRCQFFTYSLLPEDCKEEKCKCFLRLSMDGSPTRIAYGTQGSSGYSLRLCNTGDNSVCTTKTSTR
Chain of human activated kallikrein enzyme (P03952 391-638 limits assumed): as the sequence (P03952 391-638 limits assumed) above
Chain of human activated kallikrein enzyme (P03952 20-390 partner limits assumed): as the sequence (P03952 20-390 partner limits assumed) above

IC90 (plasma kallikrein) [nM]	EC50 [1] [nM]	SMILES
1500 to 10000	≤ 1	Cc1ccnc([C@H]2C[C@@H]2C2=NS(=O)(=O)c3cc4c(cc3N2)N(Cc2cn3cc(C5CC5)ccc3n2)CCO4)n1 [Example 93, 6-((6-cyclopropylimidazo[1,2-a]pyridin-2-yl)methyl)-3-((1S,2S)-2-(4-methylpyrimidin-2-yl)cyclopropyl)-7,8-dihydro-4H,6H-[1,4]oxazino[2′,3′:4,5]benzo[1,2-e][1,2,4]thiadiazine 1,1-dioxide]
1500 to 10000	≤ 1	Cc1ccnc([C@H]2C[C@@H]2c2cc(CC#N)c3ccc(NCc4cn5cc(C6CC6)cc(N6CC(=O)N(C)C6=O)c5n4)cc3n2)n1 (racemic) [Example 85, rac-2-(7-(((6-cyclopropyl-8-(3-methyl-2,4-dioxoimidazolidin-1-yl)imidazo[1,2-a]pyridin-2-yl)methyl)amino)-2-((1S*,2S*)-2-(4-methylpyrimidin-2-yl)cyclopropyl)quinolin-4-yl)acetonitrile]
≤ 400	≤ 1	Cc1ccnc([C@H]2C[C@@H]2c2cc(N3CC4(COC4)C3)c3cnc(OCc4cn5cc(C6CC6)cc(N6CC(=O)N(C)C6=O)c5n4)cc3n2)n1 [Example 103, 1-(6-cyclopropyl-2-(((2-((1S,2S)-2-(4-methylpyrimidin-2-yl)cyclopropyl)-4-(2-oxa-6-azaspiro[3.3]heptan-6-yl)-1,6-naphthyridin-7-yl)oxy)methyl)imidazo[1,2-a]pyridin-8-yl)-3-methylimidazolidine-2,4-dione]
1500 to 10000	≤ 1	COc1cc2ccc([C@H]3C[C@@H]3c3nccc(C)n3)nc2cc1NCc1cn2cc(C3CC3)cc(N3CC(=O)N(C)C3=O)c2n1 (racemic) [Example 84, rac-1-(6-cyclopropyl-2-(((6-methoxy-2-((1S*,2S*)-2-(4-methylpyrimidin-2-yl)cyclopropyl)quinolin-7-yl)amino)methyl)imidazo[1,2-a]pyridin-8-yl)-3-methylimidazolidine-2,4-dione]
10000 to 22000	1 to 10	COc1cc([C@H]2C[C@@H]2c2nccc(C)n2)nc2cc(NCc3cn4cc(C5CC5)ccc4n3)ccc12 (racemic) [Example 20, rac-N-((6-cyclopropylimidazo[1,2-a]pyridin-2-yl)methyl)-4-methoxy-2-((1S*,2S*)-2-(4-methylpyrimidin-2-yl)cyclopropyl)quinolin-7-amine]
400 to 1500	≤ 1	Cc1ccnc([C@H]2C[C@@H]2C2=CS(=O)(=O)c3ccc(NCc4cn5cc(C6CC6)cc(N6CC(=O)N(C)C6=O)c5n4)cc3N2)n1 (racemic) [Example 61, rac-1-(6-cyclopropyl-2-(((3-((1S*,2S*)-2-(4-methylpyrimidin-2-yl)cyclopropyl)-1,1-dioxido-4H-benzo[b][1,4]thiazin-6-yl)amino)methyl)imidazo[1,2-a]pyridin-8-yl)-3-methylimidazolidine-2,4-dione]
≤ 400	≤ 1	Cc1ccnc([C@H]2C[C@@H]2c2cc(N3CC4(COC4)C3)c3ccc(OCc4cc5cc(C6CC6)cc(N6CC(=O)N(C)C6=O)n5n4)cc3n2)n1 [Example 108, 1-(5-cyclopropyl-2-(((2-((1S,2S)-2-(4-methylpyrimidin-2-yl)cyclopropyl)-4-(2-oxa-6-azaspiro[3.3]heptan-6-yl)quinolin-7-yl)oxy)methyl)pyrazolo[1,5-a]pyridin-7-yl)-3-methyl imidazolidine-2,4-dione]
≤ 400	≤ 1	Cc1ccnc([C@H]2C[C@@H]2c2cc(N3CC4(COC4)C3)c3ccc(N[C@H](C)c4cn5cc(C6CC6)cc(N6CC(=O)N(C)C6=O)c5n4)cc3n2)n1 [Example 101, 1-(6-cyclopropyl-2-((R)-1-((2-((1S,2S)-2-(4-methylpyrimidin-2-yl)cyclopropyl)-4-(2-oxa-6-azaspiro[3.3]heptan-6-yl)quinolin-7-yl)amino)ethyl)imidazo[1,2-a]pyridin-8-yl)-3-methylimidazolidine-2,4-dione]
1500 to 10000	1 to 10	CN1C(=O)CN(c2cc(C3CC3)cn3cc(CNc4ccc5c(=O)cc([C@H]6C[C@@H]6c6cccc(Cl)c6)[nH]c5c4)nc23)C1=O (racemic) [Example 5, rac-1-(2-(((2-((1S*,2S*)-2-(3-chlorophenyl)cyclopropyl)-4-oxo-1,4-dihydroquinolin-7-yl)amino)methyl)-6-cyclopropylimidazo[1,2-a]pyridin-8-yl)-3-methylimidazolidine-2,4-dione]
≤ 400	≤ 1	Cc1ccnc([C@H]2C[C@@H]2c2cc(N3CCC3)c3ccc(NCc4cn5cc(C6CC6)cc(N6CC(=O)N(C)C6=O)c5n4)cc3n2)n1 [Example 30, 1-(2-(((4-(azetidin-1-yl)-2-((1S,2S)-2-(4-methylpyrimidin-2-yl)cyclopropyl)quinolin-7-yl)amino)methyl)-6-cyclopropylimidazo[1,2-a]pyridin-8-yl)-3-methylimidazolidine-2,4-dione]
–	10 to 100	COc1cc([C@H]2C[C@@H]2c2cccc(Cl)c2)nc2cc(NCc3cn4cc(C5CC5)ccc4n3)ccc12 (racemic) [Example 48, rac-2-((1S*,2S*)-2-(3-chlorophenyl)cyclopropyl)-N-((6-cyclopropylimidazo[1,2-a]pyridin-2-yl)methyl)-4-methoxyquinolin-7-amine]
–	1 to 10	COc1cc([C@H]2C[C@@H]2c2nccc(C)n2)nc2cc(N3C[C@@H](O)C[C@@H]3c3cn4cc(C5CC5)ccc4n3)ccc12 (relative stereo) [Example 53, (3S,5R)-5-(6-cyclopropylimidazo[1,2-a]pyridin-2-yl)-1-(4-methoxy-2-(rac-(1S*,2S*)-2-(4-methylpyrimidin-2-yl)cyclopropyl)quinolin-7-yl)pyrrolidin-3-ol]
–	100 to 6500	Cc1ccnc([C@H]2C[C@@H]2c2ccc3ncc(N(C)Cc4cn5cc(C6CC6)cc(N6CC(=O)N(C)C6=O)c5n4)cc3c2)n1 (racemic) [Example 17, rac-1-(6-Cyclopropyl-2-((methyl(6-((1S*,2S*)-2-(4-methylpyrimidin-2-yl)cyclopropyl)quinolin-3-yl)amino)methyl)imidazo[1,2-a]pyridin-8-yl)-3-methylimidazolidine-2,4-dione]
–	100 to 6500	Cc1ccnc([C@H]2C[C@@H]2c2cnc3ccc(NCc4cn5cc(C6CC6)cc(N6CC(=O)N(C)C6=O)c5n4)cc3c2)n1 (racemic) [Example 24, rac-1-(6-cyclopropyl-2-(((3-((1S*,2S*)-2-(4-methylpyrimidin-2-yl)cyclopropyl)quinolin-6-yl)amino)methyl)imidazo[1,2-a]pyridin-8-yl)-3-methylimidazolidine-2,4-dione]
–	> 6500	COc1cc([C@H]2C[C@@H]2c2cccc(Cl)c2)nc2cc(N(Cc3cn4cc(C5CC5)ccc4n3)C(=O)OC(C)(C)C)ccc12 (racemic) [Example 47, rac-tert-butyl (2-((1S*,2S*)-2-(3-chlorophenyl)cyclopropyl)-4-methoxyquinolin-7-yl)((6-cyclopropylimidazo[1,2-a]pyridin-2-yl)methyl)carbamate]
–	100 to 6500	Cc1ccnc([C@H]2C[C@@H]2c2ccc3ncc(NCc4cn5cc(C6CC6)cc(N6CC(=O)N(C)C6=O)c5n4)cc3c2)n1 (racemic) [Example 16, rac-1-(6-Cyclopropyl-2-(((6-((1S*,2S*)-2-(4-methylpyrimidin-2-yl)cyclopropyl)quinolin-3-yl)amino)methyl)imidazo[1,2-a]pyridin-8-yl)-3-methylimidazolidine-2,4-dione]
